Data on 33 compounds can be found in patent US20040242452A1, “Perfume composition” (priority 2001, published 2004).

Entries after “also recorded” stand apart in the source; their conditions may differ.

One experiment concerns healthy female panelists. Put plainly: CNV test (contingent negative variation) with inhaled scent samples. It counts as in vivo, human. To be noted: 0.05% ethanol solution of each component, solo or combined; five healthy female adult panelists. The source says: The psycho-sedative effect was investigated by measuring negative changes in electric potential, so-called contingent negative variation (CNV). CNV is known to be a slow cerebral potential variation which relates to psychological processes such as alertness, expectation, and anticipation and to changes in the level of consciousness.
In order to screen out a compound having a psycho-sedative or psycho-stimulative effect, a light signal which indicates start of movement is emitted two seconds after stimulation with a warning sound, and a panelist is required to react (i.e., push a button) simultaneously with the recognition of the light. During repetition of a series of such processes, an aromatic product sample is arranged about 10 cm under the nose of the panelist so that its scent can be acknowledged with breathing. An electrode for the measurement of CNV is set on the forehead of the panelist so as to record electric potential between the forehead and an earlobe. It has already been reported that the CNV amplitude increases when caffeine having an arousal effect is perorally administered to humans, whereas the amplitude decreases when nitrazepam having a sedative effect is allowed to be […].
In this test, the psycho-sedative effect was evaluated by use of the percentage as an index. A relative area of 100% or less indicates a sedative effect, and a relative area of 100% or more indicates an arousal effect.
Five healthy female panelists were subjected to the aforementioned CNV test.
Five healthy female adult panelists were subjected to the aforementioned CNV test.
(B) The following samples were prepared: a 1% ethanol solution of perilla aldehyde (commercial product); a 1% ethanol solution of perilla alcohol (commercial product); a 1% ethanol solution of DMMB (commercial product); and a 1% ethanol solution of lemon oil (commercial product). Five healthy female adult panelists were subjected to the aforementioned CNV test.
The following samples were prepared: a 0.05% ethanol solution of solo perilla aldehyde (1); a 0.05% ethanol solution of solo perilla alcohol (2); and an ethanol solution containing perilla aldehyde (0.05%) and perilla alcohol (0.05%) (3). Five healthy female adult panelists were subjected to the aforementioned CNV test.
On to `C=C(C)C1CC=C(C=O)CC1` (centres unmarked) [perilla aldehyde, dihydrocuminyl aldehyde], for which the “synergistic psycho-stimulative effect by measured CNV values (FIG. 4)” value was “acknowledged to have a psycho-stimulative effect”.

The same experiment, now with this note: 1% ethanol solution, scent inhaled about 10 cm under the nose; five healthy female panelists; CNV area relative to blank (100%): 100% or less sedative, 100% or more arousal.
On to `CC(=O)C1(C)CC2=C(CCCC2(C)C)CC1C` (centres unmarked) [Iso E Super], for which the “psycho-sedative / psycho-stimulative effect by measured CNV values (FIG. 1)” value is “psycho-sedative effect similar to that of DMMB”. Same read-out and setting: with `CC/C=C\CCOC(=O)c1ccccc1O` [Z-3-hexenyl salicylate, cis-3-hexenyl salicylate] the entry was “psycho-sedative effect similar to that of DMMB”; with `CC=Cc1ccc(OC(C)=O)c(OC)c1` [acetyl isoeugenol, methoxy-4-acetoxypropenylbenzene], “psycho-sedative effect similar to that of DMMB”. For `CC1=CCC2C(=O)C1C2(C)C` (centres unmarked) [chrysanthenone], the “psycho-sedative / psycho-stimulative effect by measured CNV values (FIG. 1)” value was “psycho-sedative effect similar to that of DMMB”.

As for `CC(C)=CCCC(C)CCO` (centres unmarked) [citronellol], the “psycho-sedative / psycho-stimulative effect by measured CNV values (FIG. 1)” value is recorded as “psycho-sedative effect similar to that of DMMB”. On the same count and under the same terms, with `CC(C)=CCC/C(C)=C/CO` [geraniol] the entry was “psycho-sedative effect similar to that of DMMB”; with `CC(=O)OC/C=C(\C)CCC=C(C)C` [geranyl acetate], “psycho-sedative effect similar to that of DMMB”; with `CCCCCC1C(=O)CCC1CC(=O)OC` (centres unmarked) [hedione, methyl dihydrojasmonate], “psycho-sedative effect similar to that of DMMB”. On the same count and under the same terms, with `CC(C=O)Cc1ccc2c(c1)OCO2` (centres unmarked) [helional] the entry was “psycho-sedative effect similar to that of DMMB”. Same read-out and setting: with `CC(C=O)Cc1ccc(C(C)(C)C)cc1` (centres unmarked) [lilial] the entry was “psycho-sedative effect similar to that of DMMB”; with `C=C(C)[C@H]1CC=C(C)CC1` [limonene], “psycho-sedative effect similar to that of DMMB”.

`C=CC(C)(O)CCC=C(C)C` (centres unmarked) [linalool]: the “psycho-sedative / psycho-stimulative effect by measured CNV values (FIG. 1)” value is recorded as “psycho-sedative effect similar to that of DMMB”. On the same count and under the same terms, with `C=CC(C)(CCC=C(C)C)OC(C)=O` (centres unmarked) [linalyl acetate] the entry was “psycho-sedative effect similar to that of DMMB”; with `CC(C)(O)CCCC1=CCC(C=O)CC1` (centres unmarked) [lyral], “psycho-sedative effect similar to that of DMMB”; with `COC(=O)c1ccc(OC)cc1` [methyl anisate], “psycho-sedative effect similar to that of DMMB”. For `CC(C)=CCC/C(C)=C\CO` [nerol], the “psycho-sedative / psycho-stimulative effect by measured CNV values (FIG. 1)” value is “psycho-sedative effect similar to that of DMMB”. As to `C=CC(C)=CCC=C(C)C` [ocimene], the “psycho-sedative / psycho-stimulative effect by measured CNV values (FIG. 1)” value is on record as “psycho-sedative effect similar to that of DMMB”. As to `Cc1ccc(CC=O)cc1` [p-methylphenylacetaldehyde], the “psycho-sedative / psycho-stimulative effect by measured CNV values (FIG. 1)” value is on record as “psycho-sedative effect similar to that of DMMB”. `OCCc1ccccc1` [β-phenylethyl alcohol]: the “psycho-sedative / psycho-stimulative effect by measured CNV values (FIG. 1)” value is “psycho-sedative effect similar to that of DMMB”. Same read-out and setting: with `CCC1CCC(=O)O1` (centres unmarked) [γ-hexalactone] the entry was “psycho-sedative effect similar to that of DMMB”; with `CC(=O)/C(C)=C/C1C(C)=CCCC1(C)C` (centres unmarked) [γ-methyl ionone], “psycho-sedative effect similar to that of DMMB”. On the same count and under the same terms, with `CCCCCC1CCC(=O)O1` (centres unmarked) [γ-nonalactone] the entry was “psycho-sedative effect similar to that of DMMB”.

Turning to terpinyl butyrate, the “psycho-sedative / psycho-stimulative effect by measured CNV values (FIG. 1)” value is on record as “psycho-sedative effect similar to that of DMMB”.

The same experiment, now with this note: 1% ethanol solution; five healthy female adult panelists; CNV area relative to blank (100%).
In the case of `COc1cc(C)cc(OC)c1` [DMMB, 1,3-dimethoxy-5-methylbenzene, reference compound], the “psycho-stimulative / psycho-sedative effect by measured CNV values (FIG. 2)” value is recorded as “psycho-sedative effect of DMMB was confirmed”. On the same count and under the same terms, for `CC(C)c1ccc(CO)cc1` [cuminyl alcohol, 4-isopropylbenzyl alcohol] the value was “psycho-stimulative effect similar to that of limone oil”; for `CCCCCCCCCCCCCC(=O)OCC` [ethyl myristate, ethyl tetradecanoate], “psycho-stimulative effect similar to that of limone oil”; for `C/C=C(/C)C(=O)OCCC(C)C` [isoamyl angelate, isoamyl(Z)-2-methyl-2-butenoate], “psycho-stimulative effect similar to that of limone oil”. As to `CC1=C2CCC(C)CC2OC1=O` (centres unmarked) [menthalactone, 3,6-dimethyl-5,6,7,7a-tetrahydro-2(4H)-benzofuranone], the “psycho-stimulative / psycho-sedative effect by measured CNV values (FIG. 2)” value is on record as “psycho-stimulative effect similar to that of limone oil”. For `C=C(C)C1CC=C(C=O)CC1` (centres unmarked) [perilla aldehyde, dihydrocuminyl aldehyde], the “psycho-stimulative effect by measured CNV values (FIG. 3)” value is recorded as “acknowledged to have a psycho-stimulative effect; also recorded: remarkably strong psycho-stimulative effect as compared with lemon oil”.

On to `C/C=C(/C)C(=O)OCCc1ccccc1` [phenylethyl angelate, 2-phenylethyl(Z)-2-methyl-2-butenoate], for which the “psycho-stimulative / psycho-sedative effect by measured CNV values (FIG. 2)” value is reported as “psycho-stimulative effect similar to that of limone oil”. The same measure, in the same setting: with `CC1=CC(=O)C(C(C)C)CC1` (centres unmarked) [piperitone, p-menth-1-en-3-one] the entry was “psycho-stimulative effect similar to that of limone oil”.

The next experiment has as its system healthy female panelists.
Experiment: not given
The settings on record: already reported; humans; caffeine perorally administered, nitrazepam allowed to be inhaled; cited from earlier work.
With `Cn1c(=O)c2c(ncn2C)n(C)c1=O` [caffeine], the CNV amplitude change result was “increases”. `O=C1CN=C(c2ccccc2)c2cc([N+](=O)[O-])ccc2N1` [nitrazepam]: the CNV amplitude change entry is “decreases”.

System in the next experiment: not given
Experiment: not given
To be noted: disclosed in Japanese Patent Application Laid-Open (kokai) No. 6-172781; also through inhalation of vaporized perfume; cited from earlier work.
In the case of `COc1cc(C)cc(OC)c1` [DMMB, 1,3-dimethoxy-5-methylbenzene, reference compound], the sedative effect result is on record as “has a sedative effect”.
